Experimental data taken from paper PMC2642729, “Interpain A, a Cysteine Proteinase from Prevotella intermedia, Inhibits Complement by Degrading Complement Factor C3” (PLoS Pathogens, 2009).

Target: T1, interpain A (InpA) (Prevotella intermedia, UniProt A9J7N5)
T1 construct: gene pin0048; full precursor 868 residues with 44-residue signal peptide; mature form 28 kDa (Val112-Pro359)
Test: active-site titration; residual activity by AMC release from Boc-Val-Leu-Lys-AMC
Type: biochemical
Details: titrated to total inactivation; pH 7.5, 5 mM EDTA, 2 mM DTT; 37 min preincubation at room temperature; covalent active-site cysteine inhibitor (mode known, not given)

T1 sequence (A9J7N5 entry or part of it): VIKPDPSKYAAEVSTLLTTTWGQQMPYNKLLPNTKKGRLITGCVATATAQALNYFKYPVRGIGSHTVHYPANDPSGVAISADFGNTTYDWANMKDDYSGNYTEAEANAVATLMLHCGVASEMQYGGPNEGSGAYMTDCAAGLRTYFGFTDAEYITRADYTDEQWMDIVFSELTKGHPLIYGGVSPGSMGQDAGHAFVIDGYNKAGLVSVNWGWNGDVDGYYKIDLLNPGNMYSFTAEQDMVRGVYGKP

SMILES: CC(C)C[C@H](NC(=O)[C@H]1O[C@@H]1C(=O)O)C(=O)NCCCCNC(=N)N [E64]
- active-site titration; residual activity by AMC release from Boc-Val-Leu-Lys-AMC: determined by active site titration using inhibitor E64 (Sigma)
